Laboratory results as given in US20250288581A1, “BALIPODECT FOR TREATING OR PREVENTING AUTISM SPECTRUM DISORDERS” (TAKEDA PHARMACEUTICAL COMPANY LIMITED, priority 2018, published 2025).
Several values for one entry are separate records, joined by “and”; a condition that tells them apart may be missing. Equal values may be shown once. Read-outs that look alike come from different tables or passages of the source.

Tests used:
[1] = Fraction unbound in plasma (fu, plasma); assay type: in vitro ADME; details: mouse
Description: An in vitro profile of the PDE10A inhibitor was created for the CDKL5-/Y mice.

[2] = test system: Male FMR1 knockout mice; assay: Open Field Test in FMR1 mouse model of FXS; assay type: in vivo; details: Compound A 5 mg/kg oral for two weeks; FIGS. 7 and 8
Description: Male FMR1 knockout (“KO”) mice and wild-type (“WT”) mice were bred at PsychoGenics. These mice were handled and chosen according to Example 5. However, the open field test started at 10 weeks of age, following 2 weeks of dosing. Three groups of mice were tested as follows: • Group (1): WT—Vehicle Group: a vehicle was orally administered for two weeks at a dose volume of 10 mL/kg. On testing days, the vehicle was administered 150 minutes prior to testing. • Group (2): FMR1 KO—Group: a vehicle was orally administered for two weeks at a dose volume of 10 mL/kg.
Open field chambers made of Plexiglas square chambers (27.3×27.3×20.3 cm; Med Associates Inc., St Albans, VT) surrounded by infrared photo beams (16×16×16) were used to measure horizontal and vertical activity of tested mice. The mice were brought into the chamber for at least 1 hour acclimation to the experimental room conditions prior to testing. Following 150 minutes of pre-treatment, the mice were placed in the center of the chamber for a 60-minute test period. After the 60-minutes, the mice were placed back into their home cage. During the test period, locomotor activity was measured in 5 minute intervals and total distance traveled was measured.

[3] = test system: CDKL5 male hemizygous (-/Y) mice; assay: Hindpaw clasping (amplexus) test in CDKL5 knock-out mice model; assay type: in vivo; details: Compound A 5 mg/kg once per day oral gavage; vs CDKL5-/Y vehicle Group (2); FIG. 1
Description: A hind paw clasping test was performed in accordance with the procedures outlined by Wang et al., PNAS, vol. 109, no. 52, pp. 21516-21521 (2012). The test is done in a CDKL5 knock-out mice model. Mice are suspended for a two-minute trial. If clasping occurs for two seconds, the mouse is positive for CDKL5 deficiency, which is a neurological impairment. Wang et al. noted the CDKL5 mutant mice, but no quantification was made. Tang et al., J. Neurosci. 37(31):7420-7437 (2017) reported 17/18 (94%) hemi male mice were positive for the clasp phenotype.
(§1) Neurobehavioral assays were run when the mice were 8-10 weeks old. Tissues were collected at the end of the study to determine plasma and CNS PK.
If clasping occurs for two seconds, the mouse is positive for CDKL5 deficiency.

[4] = test system: Male FMR1 knockout mice; assay: Fear Conditioning test in FMR1 mouse model of FXS; assay type: in vivo
Description: After completion of the open field test described in Example 6, a Fear Conditioning test was conducted on the mice of Groups (1)-(3) in a fear conditioning system manufactured by Coulbourn Instruments (PA, USA).
On day 1, mice were placed in a conditioning chamber to habituate to the context for 2 minutes […]. A tone was presented for 20 seconds. 30 seconds after the CS ended, a foot shock (1 s, 0.5 mA) was presented (US). The pairing of the CS and US was repeated a total of 3 times, with an interval of 60 seconds between pairings. Mice remained in the conditioning chamber for another 60 seconds, and then returned to their home cage.
In the morning of day 2, mice were tested for contextual memory. Mice were placed in chambers for 5 minutes. In the afternoon of day 2, mice were tested for cued memory. Mice were placed in the conditioning chamber to habituate to the context for 2 minutes (Pre-Cue). Then, the CS was presented for a total of three times for 20 seconds, with 60 second inter-trial intervals. Freezing behavior, defined as the complete lack of movement, was captured automatically with a video system and Freeze View software (Coulbourn Instruments, PA, USA).

[5] = test system: Male FMR1 knockout mice; assay: Suppression of audiogenic seizures in FMR1 mouse model of Fragile X Syndrome; assay type: in vivo; details: 125 dB tone, vs vehicle Group (1); for Latency to seizure: 5-minute test, Compound A 5 mg/kg oral 150 min prior, MPEP 30 mg/kg i.p. 30 min prior, FIG. 5; for Percent seizure (seizure rates): Compound A 5 mg/kg oral, MPEP 30 mg/kg i.p., p<0.05, FIG. 6
Description: Male FMR1 knockout mice were bred at PsychoGenics. The mice were housed in OPTI-Mice ventilated cages for the duration of the study. All mice were acclimated to the environment, examined, handled, and weighed prior to initiation of the study to assure adequate health and suitability and to minimize non-specific stress associated with manipulation. During the course of the study, 12/12 light/dark cycles were maintained. The room temperature was maintained between 20 and 23° C. with a relative humidity maintained around 50%. Chow and water were provided ad libitum for the duration of the study. Each mouse was randomly assigned across treatment groups. The testing was performed during the animals' light cycle phase at 3 weeks of age.
Prior to audiogenic seizures, on test day, three groups of mice were pre-treated as follows: • Group (1): a vehicle orally administered at a dose volume of 10 mL/kg, 150 minutes prior to testing. • Group (2): 6-Methyl-2-(phenylethynyl) pyridine HCI (“MPEP”) (Sigma Aldrich; 30 mg/kg) was dissolved in sterile injectable saline and was administered by intraperitoneal injection at a dose volume of 10 mL/kg, 30 minutes prior to testing.
After the pre-treatments, the mice of Groups (1)-(3) were individually placed in a Plexiglas chamber and allowed to explore for 15 seconds. Then, they were exposed to a 125 dB tone. The observer was blinded to the pre-treatment conditions during the test. The mice were scored by the observer based on their response, latency, and seizure intensity during a 5-minute test as follows: • 0: no response • 1. wild running and jumping • 2: clonic seizures • 3: clonic-tonic seizures • 4: tonic seizures • 5: respiratory arrest
The following endpoints were reported. […] Latency to seizure (max 300 sec. if no seizure) • 2. Percent seizure • 3. Seizure score

[6] = Plasma and brain exposure analysis after oral administration; assay type: in vivo; details: CDKL5-/Y mice; for concentration at 24 h: male, CDKL5-/Y, mouse, 5 mg/kg
Description: as §1
In Table 1, “LLOQ” is the “lower limit of quantification”, and it is used to indicate the sensitivity of the assays. The numbers in plasma and brain columns are in ng/mL for plasma and ng/g for brain.

[7] = test system: CDKL5 male hemizygous (-/Y) mice; assay: Open Field Test in CDKL5 knock-out mice model; assay type: in vivo; details: Compound A 5 mg/kg once per day oral; 15-minute trial; vs Groups (1) and (2); FIGS. 2A, 2B
Description: Spontaneous activity in an Open Field Arena is commonly used to assess general activity and ambulation. Mice were placed in the center of an arena for a fifteen-minute trial. The horizontal, vertical (rearing) and center activity are dependent variables.
FIG. 2A provides the results per minute from 0 to 15 minutes. FIG. 2B provides the results in five-minute intervals from 5 to 15 minutes.

| Compound | fraction unbound [1] | hyperactivity (total distance traveled, 60-minute open field test) [2] | percentage of no clasping [3] | freezing response, contextual fear conditioning time course ([4]; 5 minute test, minute 2 and minute 5, Compound A 5 mg/kg oral, FIG. 10) | freezing behavior during Pre-Cue, cued fear conditioning ([4]; ANOVA between treatment groups, FIG. 11) | freezing response during Cue, cued fear conditioning ([4]; FMR1 mice, p=0.06, FIG. 11) | freezing response during Post-Cue, cued fear conditioning ([4]; FMR1 mice, FIG. 11) | Latency to seizure [5] | Percent seizure (seizure rates) [5] | Concentration in mouse plasma, individual sample ([6]; oral 5 mg/kg once per day, 14 days, 24 hours after the last dose, LLOQ 0.1) | Concentration in mouse brain, individual sample ([6]; oral 5 mg/kg once per day, 14 days, 24 hours after the last dose, LLOQ 0.5) | concentration at 24 h ([6]; brain, po, oral 5 mg/kg once per day, 14 days, 24 hours after the last dose, LLOQ 0.5, read-out: Concentration in mouse brain, individual sample) [ng/g] | concentration at 24 h ([6]; brain, po, oral 5 mg/kg once per day, 14 days, 24 hours after the last dose, N=6-7, read-out: Concentration in mouse brain, Mean) [ng/g] | concentration at 24 h ([6]; plasma, oral, 24 hours after the last administration, read-out: plasma concentration in all mice vs target IC50 in vivo) [ng/mL] | concentration at 24 h ([6]; plasma, po, oral 5 mg/kg once per day, 14 days, 24 hours after the last dose, N=6-7, read-out: Concentration in mouse plasma, Mean) [ng/mL] | total distance traveled in the open field [7] |
| --- | --- | --- | --- | --- | --- | --- | --- | --- | --- | --- | --- | --- | --- | --- | --- | --- |
| COc1cn(-c2ccc(-n3cccn3)cc2F)nc(-c2ccnn2-c2ccccc2)c1=O [Compound A, 1-[2-fluoro-4-(1H-pyrazol-1-yl)phenyl]-5-methoxy-3-(1-phenyl-1H-pyrazol-5-yl)pyridazin-4(1H)-one] | 0.116 | suppresses hyperactivity | increased the percentage of no clasping | increased freezing response | no significant differences | strong trend to increasing freezing response | increased freezing response | increased the latency to seizure | significantly decreased seizure rates | 4.3 ng/mL and 8.0 ng/mL and 4.4 ng/mL and 4.8 ng/mL and 2.8 ng/mL and 7.0 ng/mL and 3.1 ng/mL | 48.2 ng/g and 38.9 ng/g and 64.5 ng/g and 44.9 ng/g and 43.8 ng/g | 36.3 | 46.1 | > 1.1 | 4.9 | significantly suppressed the total distance traveled |
| Cc1cccc(C#Cc2ccccc2)n1.Cl [MPEP, 6-Methyl-2-(phenylethynyl) pyridine HCl, reference compound] | – | – | – | – | – | – | – | increased the latency to seizure | significantly decreased seizure rates | – | – | – | – | – | – | – |
